Experimental data from PubChem BioAssay AID2060891 (Molecular Pharmacology Branch, DTP, NCI, 2025).

Tested on: K98450-129-R-PDC complex spheroid growth, percent test/control
Experiment: Anticancer human tumor K98450-129-R-PDC patient-derived colon adenocarcinoma cell line growth inhibition [RAS]
Conditions: for IC50: curve of first compound; for viability, T/C: stronger effect = lower value
Procedure, shortened: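 Multi-cell-type spheroids: tumor cells plus HUVEC endothelial cells and mesenchymal stem cells. RAS-pathway inhibitors were combined with targeted agents, each dosed in half-log steps down from clinical Cmax, or from 10 microM when Cmax was unknown.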

[1] = second compound 0.000949 µM, first compound 0.0316 µM
[2] = second compound 0.000949 µM, first compound 0.1 µM
[3] = second compound 0.000949 µM, first compound 0.316 µM
[4] = second compound 0.000949 µM, first compound 1 µM
[5] = second compound 0.000949 µM, first compound 3.16 µM
[6] = second compound 0.000949 µM, first compound 10 µM
[7] = second compound 0.003 µM, first compound 0.0316 µM
[8] = second compound 0.003 µM, first compound 0.1 µM
[9] = second compound 0.003 µM, first compound 0.316 µM
[10] = second compound 0.003 µM, first compound 1 µM
[11] = second compound 0.003 µM, first compound 3.16 µM
[12] = second compound 0.003 µM, first compound 10 µM
[13] = second compound 0.00949 µM, first compound 0.0316 µM
[14] = second compound 0.00949 µM, first compound 0.1 µM
[15] = second compound 0.00949 µM, first compound 0.316 µM
[16] = second compound 0.00949 µM, first compound 1 µM
[17] = second compound 0.00949 µM, first compound 3.16 µM
[18] = second compound 0.00949 µM, first compound 10 µM
[19] = second compound 0.03 µM, first compound 0.0316 µM
[20] = second compound 0.03 µM, first compound 0.1 µM
[21] = second compound 0.03 µM, first compound 0.316 µM
[22] = second compound 0.03 µM, first compound 1 µM
[23] = second compound 0.03 µM, first compound 3.16 µM
[24] = second compound 0.03 µM, first compound 10 µM
[25] = second compound 0.0949 µM, first compound 0.0316 µM
[26] = second compound 0.0949 µM, first compound 0.1 µM
[27] = second compound 0.0949 µM, first compound 0.316 µM
[28] = second compound 0.0949 µM, first compound 1 µM
[29] = second compound 0.0949 µM, first compound 3.16 µM
[30] = second compound 0.0949 µM, first compound 10 µM
[31] = second compound 0.3 µM, first compound 0.0316 µM
[32] = second compound 0.3 µM, first compound 0.1 µM
[33] = second compound 0.3 µM, first compound 0.316 µM
[34] = second compound 0.3 µM, first compound 1 µM
[35] = second compound 0.3 µM, first compound 3.16 µM
[36] = second compound 0.3 µM, first compound 10 µM
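Also: spheroids exposed to agents for seven days before the viability readout.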
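For viability, T/C in this document: luminescence used as a proxy for viable cell amount.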

For `CC(=O)OC12COC1CC(O)C1(C)C(=O)C(O)C3=C(C)C(OC(=O)C(O)C(NC(=O)OC(C)(C)C)c4ccccc4)CC(O)(C(OC(=O)c4ccccc4)C21)C3(C)C` (centres undefined) + CCn1c(-c2cc(N3CCN(C)CC3)cnc2C(C)OC)c2c3cc(ccc31)-c1csc(n1)CC(NC(=O)C1CC1C)C(=O)N1CCCC(N1)C(=O)OCC(C)(C)C2, the IC50 (second compound 0.000949 µM) was 688 nM, the IC50 (second compound 0.003 µM) was 252 nM and the IC50 (second compound 0.00949 µM) was 188 nM. The IC50 (second compound 0.03 µM) was less than 31.6 nM, the IC50 (second compound 0.0949 µM) was less than 31.6 nM and the IC50 (second compound 0.3 µM) was less than 31.6 nM. The viability, T/C [1] was 101%, the viability, T/C [2] was 78.6% and the viability, T/C [3] was 66.3%. For the same compound, the viability, T/C [4] was 39.4%, the viability, T/C [5] was 38.4% and the viability, T/C [6] was 34%. It also gave a viability, T/C [7] of 95.8%, a viability, T/C [8] of 69.4% and a viability, T/C [9] of 46%. It also gave a viability, T/C [10] of 29.2%, a viability, T/C [11] of 32.5% and a viability, T/C [12] of 22.4%. It also gave a viability, T/C [13] of 64.7%, a viability, T/C [14] of 70.1% and a viability, T/C [15] of 35.6%. For the same compound, the viability, T/C [16] was 24.6%, the viability, T/C [17] was 23.5% and the viability, T/C [18] was 19.2%. For the same compound, the viability, T/C [19] was 44.9%, the viability, T/C [20] was 43.2% and the viability, T/C [21] was 20.9%. It also gave a viability, T/C [22] of 16.6%, a viability, T/C [23] of 15.8% and a viability, T/C [24] of 15.3%. It also gave a viability, T/C [25] of 17.3%, a viability, T/C [26] of 14.5% and a viability, T/C [27] of 12.4%. The viability, T/C [28] was 12.5%, the viability, T/C [29] was 12.5% and the viability, T/C [30] was 10.7%. It also gave a viability, T/C [31] of 11%, a viability, T/C [32] of 10.1% and a viability, T/C [33] of 11%. For the same compound, the viability, T/C [34] was 9.96%, the viability, T/C [35] was 10.9% and the viability, T/C [36] was 9.38%.

With `CCC(CC)c1cc(NC2CCC(N)C2)n2nccc2n1` (centres undefined) + CCn1c(-c2cc(N3CCN(C)CC3)cnc2C(C)OC)c2c3cc(ccc31)-c1csc(n1)CC(NC(=O)C1CC1C)C(=O)N1CCCC(N1)C(=O)OCC(C)(C)C2 the IC50 (second compound 0.000949 µM) was 4120 nM, the IC50 (second compound 0.003 µM) was 3690 nM and the IC50 (second compound 0.00949 µM) was 2350 nM. For the same compound, the IC50 (second compound 0.03 µM) was 887 nM, the IC50 (second compound 0.0949 µM) was less than 31.6 nM and the IC50 (second compound 0.3 µM) was less than 31.6 nM. It also gave a viability, T/C [1] of 97.9%, a viability, T/C [2] of 88% and a viability, T/C [3] of 95.7%. The viability, T/C [4] was 65.1%, the viability, T/C [5] was 68.5% and the viability, T/C [6] was 16.4%. It also gave a viability, T/C [7] of 91.7%, a viability, T/C [8] of 83.2% and a viability, T/C [9] of 75.7%. For the same compound, the viability, T/C [10] was 66.3%, the viability, T/C [11] was 63.3% and the viability, T/C [12] was 13.3%. For the same compound, the viability, T/C [13] was 81.2%, the viability, T/C [14] was 60.9% and the viability, T/C [15] was 61%. The viability, T/C [16] was 62.7%, the viability, T/C [17] was 48.6% and the viability, T/C [18] was 12.9%. The viability, T/C [19] was 57.4%, the viability, T/C [20] was 44.2% and the viability, T/C [21] was 51.2%. The viability, T/C [22] was 49.9%, the viability, T/C [23] was 18.6% and the viability, T/C [24] was 12.2%. It also gave a viability, T/C [25] of 23.2%, a viability, T/C [26] of 20.8% and a viability, T/C [27] of 20.7%. For the same compound, the viability, T/C [28] was 17%, the viability, T/C [29] was 5.39% and the viability, T/C [30] was 10.7%. The viability, T/C [31] was 12.3%, the viability, T/C [32] was 13% and the viability, T/C [33] was 11.2%. It also gave a viability, T/C [34] of 11.6%, a viability, T/C [35] of 3.99% and a viability, T/C [36] of 12.9%.
